Data taken from PMC9826610 (Journal of medicinal chemistry, 2022).
Values after ≈ are worked out from the molar mass of the structure shown. Where two headings read alike, the source gives them in different places.

Experiments:
[1] = system: methicillin-resistant S. aureus (FPR3757); experiment: MIC against methicillin-resistant S. aureus; format: cell-based, Staphylococcus aureus; conditions: for MIC: complete inhibition of observable growth, Mueller–Hinton broth
[2] = system: S. aureus (strain USA300); experiment: Transmission electron microscopy of treated MRSA; format: cell-based; conditions: 1× MIC
MRSA = MRSA MIC in the presence of serum; format: cell-based; conditions: Staphylococcus aureus
S. aureus (strain COL) = experiment: Fluorescence microscopy of membrane, cell wall and DNA in MRSA; format: cell-based; conditions: 1× MIC, 30 min
sheep erythrocytes = conditions: washed sheep erythrocytes; at 32 μg/mL; compared to Triton X-100 (100% lysis)
C. albicans = experiment: Antimicrobial susceptibility panel: MIC against C. albicans; format: cell-based; conditions: Candida albicans, SC5314
[3] = Single-dose in vivo pharmacokinetics; conditions: mice
[4] = Kinetic aqueous solubility by LC-MS/MS; conditions: pH 7.4

FC(F)(F)Oc1ccc2c(Nc3ccc(C(F)(F)F)cn3)cc(C(F)(F)F)nc2c1 [Compound 34]
MIC ([1]; Staphylococcus aureus): 0.5 to 1 µg/mL (≈ 1.13 to 2.27 µM)

Fc1ccc2c(Nc3ccc(Cl)c(Cl)c3)cc(C(F)(F)F)nc2c1 [Compound 74]
MIC ([1]; Staphylococcus aureus): 0.5 to 2 µg/mL (≈ 1.33 to 5.33 µM)

FC(F)(F)c1ccc2c(Nc3ccc(C(F)(F)F)nc3)cc(C(F)(F)F)nc2c1 [Compound 49]
MIC [1]: completely abolished activity

Fc1ccc2c(Nc3ccc(C(F)(F)F)cn3)cc(C(F)(F)F)nc2c1 [Compound 76]
MIC ([1]; Staphylococcus aureus): 0.5 to 2 µg/mL (≈ 1.33 to 5.33 µM)

FC(F)(F)c1ccc(Nc2cc(C(F)(F)F)nc3cc(C(F)(F)F)ccc23)nc1 [Compound 31, 2,7-Bis(trifluoromethyl)-4-[5-(trifluoromethyl)pyridin-2-yl-amino]quinoline]
cell morphology by TEM [2]: mesosome-like membrane inclusions
MIC (MRSA; read-out: MIC + 10% FBS): 4 to 8 µg/mL

FC(F)(F)Oc1ccc2c(Nc3ccc(Cl)c(Cl)c3)cc(C(F)(F)F)nc2c1 [Compound 32]
MIC ([1]; Staphylococcus aureus): 0.5 to 1 µg/mL (≈ 1.13 to 2.27 µM)

FC(F)(F)c1ccc(Nc2cc(N3CCNCC3)nc3cc(C(F)(F)F)ccc23)nc1 [Compound 105, 2-(Piperazin-1-yl)-7-(trifluoromethyl)-4-{[5-(trifluoro-methyl)-pyridin-2-yl]amino}quinoline]
MIC ([1]; Staphylococcus aureus): 0.5 to 1 µg/mL (≈ 1.13 to 2.27 µM)
MIC [1]: 0.5 to 1 µg/mL

CSc1ccc2c(O)cc(C(F)(F)F)nc2c1 [Compound 10]
MIC ([1]; Staphylococcus aureus): 320 to 640 µg/mL (≈ 1230 to 2470 µM)

Oc1cc(C(F)(F)F)nc2c(C(F)(F)F)cccc12 [Compound 4]
MIC ([1]; Staphylococcus aureus): 2 to 4 µg/mL (≈ 7.11 to 14.2 µM)

Fc1ccc2nc(C(F)(F)F)cc(Nc3ccc(C(F)(F)F)cn3)c2c1F [Compound 77]
MIC ([1]; Staphylococcus aureus): 16 to 32 µg/mL (≈ 40.7 to 81.4 µM)

FC(F)(F)c1ccc(Nc2cc(N3CCOCC3)c3ccc(C(F)(F)F)cc3n2)nc1 [Compound 108]
MIC ([1]; Staphylococcus aureus): 4 to 8 µg/mL (≈ 9.04 to 18.1 µM)

Fc1cccc(Nc2cc(C(F)(F)F)nc3cc(C(F)(F)F)ccc23)c1 [Compound 18]
MIC ([1]; Staphylococcus aureus): 4 to 16 µg/mL (≈ 10.7 to 42.8 µM)

FC(F)(F)c1ccc2c(Nc3ccc(Cl)cc3)cc(C(F)(F)F)nc2c1 [Compound 17]
MIC ([1]; Staphylococcus aureus): 0.125 to 0.25 µg/mL (≈ 0.32 to 0.64 µM)

FC(F)(F)c1ccc2c(Nc3nccs3)cc(C(F)(F)F)nc2c1 [Compound 55]
MIC ([1]; Staphylococcus aureus): 1 to 2 µg/mL (≈ 2.75 to 5.51 µM)

FC(F)(F)c1ccc(Nc2cc(N3CCNCC3)c3ccc(C(F)(F)F)cc3n2)nc1 [Compound 106]
MIC ([1]; Staphylococcus aureus): 4 to 8 µg/mL (≈ 9.06 to 18.1 µM)

Fc1ccc(Nc2nc(C(F)(F)F)nc3nc(C(F)(F)F)ccc23)cc1F [Compound 94, N-(3,4-Difluorophenyl)-2,7-bis(trifluoromethyl)pyrido[2,3-d]-pyrimidin-4-amine]
MIC ([1]; Staphylococcus aureus): ≥ 32 µg/mL

FC(F)(F)Oc1cccc(Nc2cc(C(F)(F)F)nc3cc(OC(F)(F)F)ccc23)c1 [Compound 33]
MIC ([1]; Staphylococcus aureus): 0.5 to 1 µg/mL (≈ 1.1 to 2.19 µM)

O=c1cc(C(F)(F)F)[nH]c2cc(C(F)(F)F)cc(N[C@H]3CC[C@H](C(F)(F)F)CC3)c12 [Compound 120]
FM 4–64 membrane staining by fluorescence microscopy (S. aureus (strain COL)): membrane defects
cell morphology by TEM [2]: mesosome-like membrane inclusions

COc1ccc2c(O)cc(C(F)(F)F)nc2c1 [Compound 9]
MIC ([1]; Staphylococcus aureus): 320 to 640 µg/mL (≈ 1320 to 2630 µM)

O=c1cc(C(F)(F)F)[nH]c2cc(C(F)(F)F)cc(Nc3ccc(C(F)(F)F)cn3)c12 [Compound 111, 5-[(5-Trifluoromethylpyridin-2-yl)amino]-2,7-bis-(trifluoromethyl)quinolin-4(1H)-one]
hemolysis (sheep erythrocytes): devoid of hemolytic activity
MIC (C. albicans): 256 µg/mL (≈ 580 µM)
time total plasma concentrations stay above the MIC (<0.0625 μg/mL) ([3]; following i.v. dosing at 0.5 mg/kg): ~9 h
time total plasma concentrations stay above the MIC (<0.0625 μg/mL) ([3]; following oral dosing at 10 mg/kg): ~9 h
solubility at 6 h [4]: 2.4 ± 0.4 ng/mL (≈ 0.00544 µM)
cell morphology by TEM [2]: mesosome-like membrane inclusions
MIC (MRSA; read-out: MIC + 10% human serum): 4 to 8 µg/mL
MIC (MRSA; read-out: MIC + 10% mouse serum): 4 to 8 µg/mL
MIC (MRSA; read-out: MIC + 30% FBS): 4 to 8 µg/mL

O=c1cc(C(F)(F)F)[nH]c2cc(F)cc(Nc3ccc(C(F)(F)F)cn3)c12 [Compound 122]
FM 4–64 membrane staining by fluorescence microscopy (S. aureus (strain COL)): membrane defects

Fc1cc2nc(C(F)(F)F)cc(Nc3ccc(C(F)(F)F)cn3)c2cc1F [Compound 78]
hemolysis (sheep erythrocytes): hemolysis

CSc1cccc(Nc2cc(C(F)(F)F)nc3cc(C(F)(F)F)ccc23)c1 [Compound 24]
MIC ([1]; Staphylococcus aureus): 0.25 to 0.5 µg/mL (≈ 0.621 to 1.24 µM)

O=c1cc(C(F)(F)F)[nH]c2cc(C(F)(F)F)ccc12 [Compound 2, 2,7-Bis-(trifluoromethyl)quinolin-4-ol]
MIC ([1]; Staphylococcus aureus): 4 to 8 µg/mL (≈ 14.2 to 28.5 µM)

O=c1cc(C(F)(F)F)[nH]c2cc(C(F)(F)F)cc(Nc3ccc(F)cn3)c12 [Compound 114]
MIC ([1]; Staphylococcus aureus): 0.125 to 2 µg/mL (≈ 0.319 to 5.11 µM)

FC(F)(F)c1ccc2c(Nc3cccc(Cl)c3)cc(C(F)(F)F)nc2c1 [Compound 16]
MIC ([1]; Staphylococcus aureus): 0.125 to 0.25 µg/mL (≈ 0.32 to 0.64 µM)

Oc1cc(C(F)(F)F)nc2cc(OC(F)(F)F)ccc12 [Compound 3]
MIC ([1]; Staphylococcus aureus): 4 to 8 µg/mL (≈ 13.5 to 26.9 µM)

FC(F)(F)c1ccc2c(Nc3cc(Cl)ccn3)cc(C(F)(F)F)nc2c1 [Compound 48]
loss of activity (MIC) relative to 31 [1]: 8 fold

Fc1ccc(Nc2cc(C(F)(F)F)nc3cc(C(F)(F)F)ccc23)cc1F [Compound 21]
MIC ([1]; Staphylococcus aureus): 0.125 to 0.25 µg/mL (≈ 0.319 to 0.637 µM)

CCc1ccc2c(O)cc(C(F)(F)F)nc2c1 [Compound 8]
MIC ([1]; Staphylococcus aureus): 320 to 640 µg/mL (≈ 1330 to 2650 µM)
